Numbered stars: 1 amine (or outer) side, 2 acyl side, 3 side chain; on linkers, the order of the positions; unused ones are H or OH. Square brackets hold non-standard residues; d marks the D form. Peptide text beside a SMILES is read from it. * marks the point of attachment. Bip = N[C@@H](Cc1ccc(-c2ccccc2)cc1)C(=O)O; His(τ-Me) = Cn1cnc(C[C@H](N)C(=O)O)c1; 3Pal = N[C@@H](Cc1cccnc1)C(=O)O; Cbz = O=C(OCc1ccccc1)*; CO = O=C([*:1])[*:2]; NHBn = c1ccc(CN*)cc1; Bn = c1ccc(C*)cc1

The target of this test is T1, rat brain farnesyl protein transferase (PFT) (Rattus norvegicus, UniProt Q02293+Q04631).
T1 construct: 40-fold purified rat brain farnesyl protein transferase; from tissue; host or cells: rat brain
T1 sequence (Q02293 whole entry, one chain of several): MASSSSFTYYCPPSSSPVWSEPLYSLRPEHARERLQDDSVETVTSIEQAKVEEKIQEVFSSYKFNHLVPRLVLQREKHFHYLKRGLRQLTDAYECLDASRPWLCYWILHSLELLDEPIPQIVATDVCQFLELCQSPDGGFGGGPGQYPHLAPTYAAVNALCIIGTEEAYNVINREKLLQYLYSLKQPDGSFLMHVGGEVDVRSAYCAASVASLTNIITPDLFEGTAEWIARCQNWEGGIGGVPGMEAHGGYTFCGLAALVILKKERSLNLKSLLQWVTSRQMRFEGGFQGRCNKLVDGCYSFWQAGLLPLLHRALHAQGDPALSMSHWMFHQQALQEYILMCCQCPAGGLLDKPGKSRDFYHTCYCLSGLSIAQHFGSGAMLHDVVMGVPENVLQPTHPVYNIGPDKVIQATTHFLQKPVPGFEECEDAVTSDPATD
Put plainly: PFT inhibitory activity assay (radiolabeled farnesyl pyrophosphate, biotinyl peptide, streptavidin beads). Format: biochemical. To be noted: 40-fold purified rat brain enzyme; 0.12 μM [3H]FPP, 0.1 μM biotinyl-Ahe-Tyr-Lys-Cys-Val-Ile-Met; 37° C., 30 minutes; read-out: IC50 (μM) against PFT. As for the experimental part: The PFT inhibitory activity of compounds of Formula I was assayed in 30 mM potassium phosphate buffer, pH 7.4, containing 7 mM DTT, 1.2 mM MgCl2, 0.1 mM leupeptin, 0.1 mM pepstatin and 0.2 mM phenylmethylsulfonyl fluoride. Assays were performed in 96 well plates (Wallec) and employed solutions composed of varying concentrations of a compound of Formula I in 100% DMSO. Upon addition of both substrates, radiolabeled farnesyl pyrophosphate ([1-^3 H], specific activity 15--30 Ci/mmol, final concentration 0.12 μM) and (biotinyl)-Ahe-Tyr-Lys-Cys-Val-Ile-Met peptide (final concentration 0.1 μM), the enzyme reaction was started by addition of 40-fold purified rat brain farnesyl protein transferase. After incubation at 37° C. for 30 minutes, the reaction was terminated by diluting the reaction 2.5-fold with a stop buffer containing 1.5M magnesium acetate, 0.2M H3 PO4, 0.5% BSA, and strepavidin beads (Amersham) at a concentration of 1.3 mg/mL. After allowing the plate to settle for 30 minutes at room temperature, radioactivity was quantitated on a microBeta counter (model 1450, Wallec). Compounds of Formula I show IC50 values of 0.5 nM to 80 μM (see data table) in this assay and are thus valuable inhibitors of protein: farnesyl transferase enzyme which may be used in the medical treatment of tissue proliferative diseases, including cancer and restenosis.
As to `COc1ccccc1CCCNC(=O)[C@H](Cc1ccc(OCc2ccccc2)cc1)NC(=O)[C@@H](Cc1c[nH]cn1)NS(=O)(=O)c1ccc(C)cc1` [5 (49), (4-MePh)SO2 --D--His--Tyr(OBn)--CONHCH2 CH2 CH2 --(2-MeO--Ph)], the IC50 amounted to 2.9 µM.

For the compound `O=C(N[C@@H](Cc1c[nH]cn1)C(=O)N[C@@H](Cc1ccc(OCc2ccccc2)cc1)C(=O)NCCOCc1ccccc1)OCc1ccccc1` [Example 19, Nα -[-N-[(Phenylmethoxy)carbonyl]-L-histidyl]-O-(phenylmethyl)-N-[2-(phenylmethoxy)ethyl]-L-tyrosinamide], the IC50 was 0.31 µM.

In the case of `COC(=O)[C@H](COCc1ccccc1)NC(=O)[C@H](Cc1ccc(OCc2ccccc2)cc1)NC(=O)[C@@H](Cc1c[nH]cn1)NC(=O)OCc1ccccc1` [Example 8, N-[N-[N-[(Phenylmethoxy)carbonyl]-D-histidyl]-O-(phenylmethyl)-L-tyrosyl]-O-(phenylmethyl)-L-serine, methyl ester] (Cbz-[dH]-Tyr(Bn)-Ser(Bn)-OMe), the IC50 turned out to be 0.074 µM.

Take `COC(=O)[C@H](COCc1ccccc1)NC(=O)[C@H](Cc1ccc(OCc2ccccc2)cc1)NC(=O)[C@H](Cc1cn(C)cn1)NC(=O)OCc1ccccc1` [Example 13, N-[N-[1-Methyl-N-[(phenylmethoxy)carbonyl]l-L-histidyl]-O-(phenylmethyl)-L-tyrosyl]-O-(phenylmethyl)-L-serine. methyl ester] (Cbz-[His(τ-Me)]-Tyr(Bn)-Ser(Bn)-OMe): the IC50 is 0.083 µM.

For the compound `COC(=O)[C@@H](COCc1ccccc1)NC(=O)[C@H](Cc1ccc(OCc2ccccc2)cc1)NC(=O)[C@H](Cc1c[nH]cn1)NC(=O)OCc1ccccc1` [Example 9, N-[N-[N-[(Phenylmethoxy)carbonyl]-L-histidyl]-O-(phenylmethyl)-L-tyrosyl]-O-(phenylmethyl)-D-serine, methyl ester] (Cbz-His-Tyr(Bn)-[dS](Bn)-OMe), the IC50 came out at 0.27 µM.

As to `CCNC(=O)[C@H](COCc1ccccc1)NC(=O)[C@H](Cc1ccc(OCc2ccccc2)cc1)NC(=O)[C@@H](Cc1c[nH]cn1)NC(=O)OCc1ccccc1` [Example 12, N-Ethyl-Nα -[N-[N-[(Phenylmethoxy)carbonyl]-D-histidyl]-O-(phenylmethyl)-L-tyrosyl]-O-(phenylmethyl)-L-serinamide] (Cbz-[dH]-Tyr(Bn)-Ser(Bn)-NHEt), the IC50 amounted to 0.028 µM.

In the case of `COC(=O)[C@H](COCc1ccccc1)NC(=O)[C@H](CCc1ccc(OCc2ccccc2)cc1)NC(=O)[C@@H](Cc1c[nH]cn1)NC(=O)OCc1ccccc1` [Example 15], the IC50 was 30 µM.

For the compound `COC(=O)[C@H](COCc1ccccc1)NC(=O)[C@H](Cc1ccc(-c2ccccc2)cc1)NC(=O)[C@H](Cc1c[nH]cn1)NC(=O)OCc1ccccc1` [Example 16, N-[4-Phenyl-N-[N-[(phenylmethoxy)carbonyl]-L-histidyl]-L-phenylalanyl]-O-(phenylmethyl)-L-serine, methyl ester] (Cbz-His-[Bip]-Ser(Bn)-OMe), the IC50 amounted to 0.6 µM.

Consider `COc1ccccc1CCCNC(=O)C(Cc1ccc(OCc2ccccc2)cc1)NC(=O)C(Cc1c[nH]cn1)NC(=O)Cc1ccccc1` [5 (69), PhCH2 CO--D--His--Tyr(OBn)CONH(CH2)3 --(2-MeO--Ph)], for which the IC50 came out at 0.48 µM.

As to `O=C(NCc1ccccc1)N[C@@H](Cc1c[nH]cn1)C(=O)N[C@@H](Cc1ccc(OCc2ccccc2)cc1)C(=O)NCCCOc1ccccc1` [Example 4], the IC50 stood at 1 µM.

On to `O=C(Cc1ccccc1)N[C@H](Cc1c[nH]cn1)C(=O)N[C@@H](Cc1ccc(OCc2ccccc2)cc1)C(=O)N1CCN(Cc2ccccc2)CC1` [5 (30), PhCH2 CO--D--His--Tyr(OBn)CO(4-Bn-piperazin-1-yl)], for which the IC50 is 73 µM.

For the compound `COC(=O)C(CCSC)NC(=O)C(Cc1ccc(OCc2ccccc2)cc1)NC(=O)C(Cc1cnc[nH]1)NC(=O)NCCc1ccccc1` [5 (28), PhCH2 CH2 NHCO--D--His--Tyr(OBn)CONH--Met--CO2 Me], the IC50 was found to be 0.73 µM.

With `COC(=O)[C@H](Cc1cccnc1)NC(=O)[C@H](Cc1ccc(OCc2ccccc2)cc1)NC(=O)[C@H](Cc1c[nH]cn1)NC(=O)OCc1ccccc1` [Example 24, N-[N-[N-[(Phenylmethoxy)carbonyl]-L-histidyl]-O-(phenylmethyl)-L-tyrosyl]-3-(3-pyridinyl)-L-alanine, methyl ester] (Cbz-His-Tyr(Bn)-[3Pal]-OMe), the IC50 came out at 1 µM.

`O=C(Nc1cccc2ccccc12)N[C@H](Cc1c[nH]cn1)C(=O)N[C@@H](Cc1ccc(OCc2ccccc2)cc1)C(=O)NCCOCc1ccccc1` [5 (56), 1-napthyl-NHCO--D--His--Tyr(OBn)CONHCH2 CH2 OBn]: the IC50 was 1.1 µM.

On to `CCOc1ccc(NC(=O)N[C@@H](Cc2cnc[nH]2)C(=O)N[C@H](Cc2ccc(OCc3ccccc3)cc2)C(=O)NCCCOc2ccccc2)cc1` (stereo in doubt) [Example 25, (S,R)-N-[2-(4-Benzyloxy-phenyl)-1-(3-phenoxy-propylcarbamoyl)-ethyl]-2-[3-(4-ethoxy-phenyl)-ureido]-3-(3H-imidazol-4-yl)-propionamide], for which the IC50 came out at 3.7 µM.

With `CC(C)NC(=O)NC(Cc1cnc[nH]1)C(=O)NC(Cc1ccc(OCc2ccccc2)cc1)C(=O)NCc1ccccc1` [5 (40), (CH3)2 CHNHCO--D--His--Tyr(OBn)CONHCH2 Ph], the IC50 was 0.75 µM.

Regarding `COC(=O)[C@H](COCc1ccccc1)NC(=O)[C@H](Cc1ccc(OCc2ccccc2)cc1)NC(=O)[C@H](Cc1c[nH]cn1)NC(=O)NCc1ccccc1` [Example 17, N-[O-(Phenylmethyl)-N[N-[[(Phenylmethyl)amino]-carbonyl]-L-histidyl]-L-tyrosyl]-O-(phenylmethyl)-serine, methyl ester] ({NHBn-CO}-His-Tyr(Bn)-Ser(Bn)-OMe), the half-maximal inhibitory concentration (IC50) was 0.039 µM.

On to `O=C(Nc1ccccc1)NC(Cc1c[nH]cn1)C(=O)NC(Cc1ccc(OCc2ccccc2)cc1)C(=O)NCCCOc1ccccc1` [5 (3), PhNHCO--D--His--Tyr(OBn)--CONHCH2 CH2 CH2 OPh], for which the IC50 is 2.1 µM.

Consider `CCOc1ccc(NC(=O)N[C@H](Cc2c[nH]cn2)C(=O)N[C@@H](Cc2ccc(OCc3ccccc3)cc2)C(=O)NCCOCc2ccccc2)cc1` [5 (61), (4-EtOPh)NHCO--D--His--Tyr(OBn)CONHCH2 CH2 OBn], for which the IC50 amounted to 7.2 µM.

Turning to `COC(=O)[C@H](COCc1ccccc1)NC(=O)C(C)(Cc1ccc(OCc2ccccc2)cc1)NC(=O)[C@H](Cc1c[nH]cn1)NC(=O)OCc1ccccc1` (mixture of isomers) [Example 10, N-[α-Methyl-N-[N-[(phenylmethoxy)carbonyl]-L-histidyl]-O-(phenylmethyl)-DL-tyrosyl]-O-(phenylmethyl)-L-serine. methyl ester], the IC50 was determined as 0.1 µM.

As to `O=C(CCc1ccccc1)NC(Cc1c[nH]cn1)C(=O)NC(Cc1ccc(OCc2ccccc2)cc1)C(=O)NCc1ccccc1` [5 (80), PhCH2 CH2 CO--D--His--Tyr(OBn)CONHCH2 Ph], the IC50 worked out at 1.6 µM.

In the case of `O=C(NC(Cc1cnc[nH]1)C(=O)NC(Cc1ccc(OCc2ccccc2)cc1)C(=O)NCCSCc1ccccc1)OCc1ccccc1` [5 (62), BnOCO--D--His--Tyr(OBn)CONHCH2 CH2 SBn], the IC50 is 1.5 µM.

As to “PhCH2 CH2 NHCO--D--His--Tyr(OBn)CONHCH2 CH2 [5 (27)]”, the IC50 stood at 30 µM.

In general, IC50 refers to the concentration needed to halve the response being measured.

Source of the values: patent US5830868A, “Substituted DI- and tripeptide inhibitors of protein: farnesyl transferase” (Warner-Lambert Company, priority 1996, dated 1998).
